Among the data in patent US9511134B2, “Inducing immune responses to influenza virus using polypeptide and nucleic acid compositions” (priority 2006, dated 2016) are IC50 values, retold here.

Common to all, as to assay: biochemical
Holding throughout (type): binding

One experiment has as its target T1, DRB1*0101 (Homo sapiens, UniProt P01903+P01911, A100R/D57E/F55L/F60I/F76Y/I96L/L162R/M171V/P40L/Q125E/R42F/V115G/Y59C).
T1 construct: made in house; host or cells: EBV-transformed homozygous human B cell lines, transfected fibroblasts or single-allele 721.221 transfectants

A further experiment deals with DRB1*1302 (Homo sapiens, UniProt P01903+P01911, A100E/A169T/K41T/L162R/M171V/P40S/Q125H/Q178H/Q39Y/Q99D/R42S/S66N/T262R/V115G/W38E/Y61H). As to conditions: read-out: IC50 nM to purified HLA DRB1*1302.
Another experiment has as its target T2, DRB1*1501 (Homo sapiens, UniProt P01903+P01911).
T2 construct: made in house; host or cells: EBV-transformed homozygous human B cell lines, transfected fibroblasts or single-allele 721.221 transfectants
Conditions: read-out: IC50 nM to purified HLA DRB1*1501.

A further experiment deals with T3, DRB4*0101 (Homo sapiens, UniProt P01903+P13762, G164S).
T3 construct: made in house; host or cells: EBV-transformed homozygous human B cell lines, transfected fibroblasts or single-allele 721.221 transfectants

For the next experiment, the target named is T4, DRB1*0401 (Homo sapiens, UniProt P01903+P01911, A100K/A169T/F76Y/I96L/K127E/L162R/M171V/N62H/P40V/Q125Y/R42H/S133A/S149N/S66Y/V115G/V209L/W38E).
T4 construct: made in house; host or cells: EBV-transformed homozygous human B cell lines, transfected fibroblasts or single-allele 721.221 transfectants
Conditions: read-out: IC50 nM to purified HLA DRB1*0401.

For a further experiment, the target named is T5, DRB1*0301 (Homo sapiens, UniProt P01903+P01911, A100K/A102G/A103R/A169T/F55Y/I96L/K41T/L162R/M171V/P40S/Q125H/Q178H/Q39Y/R42S/S66N/T106N/T262R/W38E/Y61H).
T5 construct: made in house; host or cells: EBV-transformed homozygous human B cell lines, transfected fibroblasts or single-allele 721.221 transfectants

Setting [1] is: IC50 nM to purified HLA DRB1*0101.
Where [2] appears, read: IC50 nM to purified HLA DRB4*0101.
Setting [3] is: IC50 nM to purified HLA DRB1*0101, Table 4.
Setting [4] is: IC50 nM to purified HLA DRB4*0101, Table 4.

Read-outs that look alike come from different tables or passages of the source. Where no end group is shown, it is not given here.

Sequence of DRB1*1302 (P01903 26-254 limits assumed, other chains not shown): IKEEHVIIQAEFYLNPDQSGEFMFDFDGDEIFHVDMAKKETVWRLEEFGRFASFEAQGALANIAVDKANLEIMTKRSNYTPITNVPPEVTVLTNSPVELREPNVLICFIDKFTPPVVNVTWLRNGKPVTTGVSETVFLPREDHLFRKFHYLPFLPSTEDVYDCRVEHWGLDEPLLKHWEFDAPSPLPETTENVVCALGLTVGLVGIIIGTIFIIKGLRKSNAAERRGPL
T5 sequence (P01903 26-254, other chains not shown): as the sequence (P01903 26-254 limits assumed, other chains not shown) above

Take `CC[C@H](C)[C@H](NC(=O)[C@@H]1CCCN1C(=O)[C@H](CCCNC(=N)N)NC(=O)[C@@H](NC(=O)[C@H](CCCCN)NC(=O)[C@H](CC(C)C)NC(=O)[C@H](Cc1c[nH]c2ccccc12)NC(=O)[C@H](CCC(=O)O)NC(=O)[C@H](CCSC)NC(=O)[C@H](CC(C)C)NC(=O)[C@H](C)NC(=O)[C@@H](N)CCC(=O)O)[C@@H](C)O)C(=O)N[C@@H](CC(C)C)C(=O)N[C@@H](CO)C(=O)N1CCC[C@H]1C(=O)O` [Flu.M1.43]: the IC50 (commonly the concentration at which inhibition is half-maximal) at DRB1*0101 (setting [1]) is 9.5 nM; on DRB1*1302 it was 380 nM; on DRB1*1501, 18 nM; against DRB4*0101 (setting [2]), 5510 nM.
Consider `CSCC[C@H](NC(=O)[C@H](CCCNC(=N)N)NC(=O)[C@H](CCSC)NC(=O)[C@@H](N)C(C)C)C(=O)NCC(=O)N[C@@H](CC(=O)O)C(=O)N[C@@H](CC(C)C)C(=O)N[C@@H](Cc1c[nH]cn1)C(=O)N[C@@H](CO)C(=O)N[C@@H](CC(C)C)C(=O)N[C@@H](CCC(N)=O)C(=O)N[C@@H](CC(N)=O)C(=O)N[C@@H](CCCNC(=N)N)C(=O)N[C@@H](CC(N)=O)C(=O)NCC(=O)O` [Flu.NS2.125], for which the IC50 worked out at 249 nM on DRB1*0101 (setting [1]); 448 nM at DRB1*0401; 1370 nM at DRB1*1302; 372 nM at DRB1*1501; 8820 nM on DRB4*0101 (setting [2]).
As to `CC[C@H](C)[C@H](N)C(=O)N[C@@H](Cc1ccc(O)cc1)C(=O)N[C@@H](CCC(N)=O)C(=O)N[C@H](C(=O)N[C@@H](CC(C)C)C(=O)N[C@@H](CO)C(=O)N[C@H](C(=O)N[C@@H](Cc1ccc(O)cc1)C(=O)N[C@@H](CO)C(=O)N[C@H](C(=O)N[C@H](C(=O)N[C@@H](C)C(=O)N[C@@H](CO)C(=O)N[C@@H](CO)C(=O)N[C@@H](CC(C)C)C(=O)N[C@@H](C)C(=O)O)C(C)C)[C@@H](C)O)[C@@H](C)CC)[C@@H](C)CC` [Flu.HA.529], the concentration for half-maximal inhibition (IC50) at DRB1*0101 (setting [1]) was 55 nM; on DRB1*0101 (setting [3]), 55 nM; at DRB1*0401 (Table 4) it was 89 nM; on DRB1*0401, 89 nM; at DRB1*1302, 13 nM; at DRB1*1501 (Table 4) it was 4.7 nM. The IC50 is 4.7 nM on DRB1*1501, 18 nM on DRB4*0101 (setting [2]) and 18 nM against DRB4*0101 (setting [4]).
Take `CC[C@H](C)[C@H](NC(=O)[C@H](CC(C)C)NC(=O)[C@H](Cc1c[nH]c2ccccc12)NC(=O)[C@@H](NC(=O)[C@@H](N)C(C)C)C(C)C)C(=O)N[C@@H](CCCCN)C(=O)N[C@@H](CCCCN)C(=O)N[C@@H](CC(N)=O)C(=O)N[C@@H](CO)C(=O)N[C@H](C(=O)N[C@@H](Cc1ccc(O)cc1)C(=O)N1CCC[C@H]1C(=O)N[C@H](C(=O)N[C@H](C(=O)N[C@@H](CCCCN)C(=O)N[C@@H](CCCNC(=N)N)C(=O)O)[C@@H](C)CC)[C@@H](C)O)[C@@H](C)O` [Flu.HA.163]: the IC50 on DRB1*0101 (setting [1]) is 464 nM; on DRB1*1302 it was 14 nM; on DRB1*1501, 99 nM; on DRB4*0101 (setting [2]), 1660 nM.
Take `CC[C@H](C)[C@H](NC(=O)[C@@H](N)CC(=O)O)C(=O)N[C@@H](CC(C)C)C(=O)N[C@@H](CCSC)C(=O)N[C@@H](CCCNC(=N)N)C(=O)N[C@@H](CCSC)C(=O)N[C@@H](CO)C(=O)N[C@@H](CCCCN)C(=O)N[C@@H](CCSC)C(=O)N[C@@H](CCC(N)=O)C(=O)N[C@@H](CC(C)C)C(=O)NCC(=O)N[C@@H](CO)C(=O)N[C@@H](CO)C(=O)N[C@@H](CO)C(=O)O` [Flu.NS2.87]: the IC50 against DRB1*0101 (setting [1]) amounted to 2140 nM; at DRB1*0401 it was 717 nM; on DRB1*1302 it was 423 nM; at DRB1*1501, 748 nM; against DRB4*0101 (setting [2]), 11 nM.
As for `CSCC[C@H](NC(=O)[C@H](CC(C)C)NC(=O)[C@@H](NC(=O)[C@H](CCCNC(=N)N)NC(=O)[C@H](Cc1c[nH]cn1)NC(=O)[C@@H]1CCCN1C(=O)[C@H](CO)NC(=O)[C@H](CCCNC(=N)N)NC(=O)[C@H](CC(=O)O)NC(=O)[C@H](CCCCN)NC(=O)[C@@H](NC(=O)[C@@H](NC(=O)CNC(=O)[C@@H](N)CC(N)=O)[C@@H](C)O)C(C)C)[C@@H](C)O)C(=O)N[C@@H](CO)C(=O)O` [Flu.NA.126], the IC50 against DRB1*0101 (setting [1]) came to 581 nM; on DRB1*0401, 17900 nM; on DRB1*1302, 7930 nM; on DRB4*0101 (setting [2]), 8880 nM.
Turning to ISGVKLESIGIYQILSI [Flu.HA.519], the IC50 at DRB1*0401 amounted to 3110 nM; on DRB1*1302, 408 nM; on DRB1*1501 it was 9.2 nM; against DRB4*0101 (setting [2]), 16 nM.
`CC[C@H](C)[C@H](NC(=O)[C@H](CS)NC(=O)[C@@H](NC(=O)[C@H](CCC(N)=O)NC(=O)[C@H](CC(=O)O)NC(=O)[C@H](CO)NC(=O)[C@H](CCCCN)NC(=O)[C@@H](NC(=O)[C@H](CC(C)C)NC(=O)[C@H](CO)NC(=O)[C@@H](N)C(C)C)C(C)C)[C@@H](C)CC)C(=O)NCC(=O)N[C@@H](Cc1ccc(O)cc1)C(=O)N[C@@H](Cc1c[nH]cn1)C(=O)N[C@@H](C)C(=O)O` [Flu.HA.11]: the figures for the IC50 against DRB1*0301, on DRB1*1501 and on DRB4*0101 (setting [2]) were 0.511 µM, 14500 nM and 32 nM, respectively.
Turning to `CC[C@H](C)[C@H](N)C(=O)N[C@@H](CC(C)C)C(=O)N[C@@H](CO)C(=O)N[C@H](C(=O)N[C@@H](Cc1ccc(O)cc1)C(=O)N[C@@H](CO)C(=O)N[C@H](C(=O)N[C@H](C(=O)N[C@@H](C)C(=O)N[C@@H](CO)C(=O)N[C@@H](CO)C(=O)N[C@@H](CC(C)C)C(=O)N[C@@H](C)C(=O)N[C@@H](CC(C)C)C(=O)N[C@@H](C)C(=O)N[C@H](C(=O)O)[C@@H](C)CC)C(C)C)[C@@H](C)O)[C@@H](C)CC` [Flu.HA.532], the IC50 came out at 11 nM on DRB1*0101 (setting [1]); 11 nM against DRB1*0101 (setting [3]); 91 nM on DRB1*0401 (Table 4); 91 nM at DRB1*0401; 7.6 nM on DRB1*1302; 20 nM on DRB1*1501 (Table 4). For the same compound, the IC50 turned out to be 20 nM at DRB1*1501, 824 nM against DRB4*0101 (setting [2]) and 824 nM at DRB4*0101 (setting [4]).
For `CC[C@H](C)[C@H](NC(=O)[C@H](CCC(N)=O)NC(=O)[C@H](Cc1ccc(O)cc1)NC(=O)[C@H](CCC(=O)O)NC(=O)[C@H](CC(C)C)NC(=O)[C@@H](N)CC(N)=O)C(=O)NCC(=O)N[C@@H](Cc1ccc(O)cc1)C(=O)N[C@H](C(=O)N[C@@H](CS)C(=O)N[C@@H](CO)C(=O)NCC(=O)N[C@H](C(=O)N[C@@H](Cc1ccccc1)C(=O)NCC(=O)O)C(C)C)[C@@H](C)CC` [Flu.NA.289], the IC50 turned out to be 1130 nM on DRB1*0101 (setting [1]); 975 nM at DRB1*0401; 41 nM at DRB1*1302; 13 nM on DRB1*1501; 354 nM against DRB4*0101 (setting [2]).
`CC[C@H](C)[C@H](NC(=O)[C@H](CC(C)C)NC(=O)[C@H](CCCNC(=N)N)NC(=O)CNC(=O)[C@@H](N)CCC(=O)O)C(=O)N[C@@H](CCC(N)=O)C(=O)N[C@@H](CC(N)=O)C(=O)N[C@@H](CO)C(=O)N[C@H](C(=O)N[C@H](C(=O)N[C@H](C(=O)N[C@@H](CCC(=O)O)C(=O)N[C@@H](CCCNC(=N)N)C(=O)N[C@@H](CCSC)C(=O)N[C@H](C(=O)O)C(C)C)[C@@H](C)CC)[C@@H](C)O)[C@@H](C)CC` [Flu.NP.56]: the IC50 at DRB1*1302 is 55 nM; against DRB4*0101 (setting [2]), 15 nM.
As for `CC[C@H](C)[C@H](NC(=O)[C@H](CCCNC(=N)N)NC(=O)[C@@H](NC(=O)[C@H](CO)NC(=O)[C@H](CC(N)=O)NC(=O)[C@H](CC(=O)O)NC(=O)[C@H](CCCCN)NC(=O)[C@H](CO)NC(=O)[C@H](Cc1ccc(O)cc1)NC(=O)[C@@H](NC(=O)[C@H](C)NC(=O)[C@@H](N)Cc1c[nH]c2ccccc12)C(C)C)[C@@H](C)CC)C(=O)NCC(=O)N[C@@H](CO)C(=O)N[C@@H](CCCCN)C(=O)O` [Flu.NA.77], the IC50 against DRB1*0101 (setting [1]) came out at 5400 nM; on DRB1*0401 it was 1600 nM; on DRB1*1302, 36 nM; on DRB1*1501 it was 642 nM; against DRB4*0101 (setting [2]), 19500 nM.
On to `CC[C@H](C)[C@H](NC(=O)[C@H](CO)NC(=O)[C@H](CC(N)=O)NC(=O)[C@@H](N)CCC(N)=O)C(=O)N[C@H](C(=O)N[C@H](C(=O)N[C@@H](CCC(=O)O)C(=O)N[C@@H](CCCNC(=N)N)C(=O)N[C@@H](CCSC)C(=O)N[C@H](C(=O)N[C@@H](CC(C)C)C(=O)N[C@@H](CO)C(=O)N[C@@H](C)C(=O)N[C@@H](Cc1ccccc1)C(=O)N[C@@H](CC(=O)O)C(=O)O)C(C)C)[C@@H](C)CC)[C@@H](C)O` [Flu.NP.61], for which the IC50 is 430 nM at DRB1*0401, 1200 nM at DRB1*1501 (Table 4), 1200 nM at DRB1*1501 and 39 nM on DRB4*0101 (read-out: IC50 nM to purified HLA DRB4*0101).
